US11214594B2, “Antimicrobial peptide having synergistic antibacterial effect with antibiotics on multidrug resistant bacteria, and use thereof” (priority 2016, dated 2022)
≈ marks a conversion by molar mass, not a printed value. Where a SMILES comes first, the peptide text is derived from it.

What was measured:
MDRAB 12036 = format: cell-based, Acinetobacter baumannii
Summary of the method: (§1)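 Broth microdilution in MH medium: strains diluted to 2×10^6 CFU were mixed with equal volumes of twofold serial peptide dilutions in MH medium. MIC was taken as the lowest peptide concentration preventing bacterial growth.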

S. aureus = experiment: microbe, parasite or virus in culture; format: cell-based, Staphylococcus aureus
Summary of the method: as §1

MDREC 1238 = format: cell-based, Escherichia coli
Summary of the method: as §1

B. subtilis = experiment: microbe, parasite or virus in culture; format: cell-based, Bacillus subtilis
Summary of the method: as §1

MDRPA 2002 = format: cell-based, Pseudomonas aeruginosa
Summary of the method: as §1

MDRPA 2003 = format: cell-based, Pseudomonas aeruginosa
Summary of the method: as §1

MDREC 1229 [1] = experiment: microbe, parasite or virus in culture; format: cell-based, Escherichia coli
Summary of the method: as §1

E. coli = experiment: microbe, parasite or virus in culture; format: cell-based, Escherichia coli; settings: 16 h
Summary of the method: as §1

MRSA 3114 = format: cell-based, Staphylococcus aureus; settings: 3114
Summary of the method: as §1

MRSA 3126 = format: cell-based, Staphylococcus aureus; settings: 3126
Summary of the method: as §1

MDRST 8009 = format: cell-based, Salmonella typhimurium; settings: agent alone
Summary of the method: as §1

MDREC 1229 [2] = experiment: MIC of antibiotic during combined treatment with antimicrobial peptide; format: cell-based, Escherichia coli
Method: Specifically, the strains described in [Table 2] were prepared and diluted with an MH medium such that the number of bacteria was 2×10^6 colony-forming units (CFUs) per 1 ml, 100 μl of the diluted strains was each aliquoted into a 96-well microtiter plate, and then 50 μl of a peptide solution diluted with the MH medium from the MIC value (solution diluted stepwise at 2: 1) was added to each well. Thereafter, the MIC value of each mixed solution was determined by diluting the antibiotic solution with the MH medium, adding 50 μl of the diluted solution to each well, and performing an experiment even under a reversed condition.

S. typhimurium = experiment: microbe, parasite or virus in culture; format: cell-based, Salmonella typhimurium
Summary of the method: as §1

[3] = tested on: multi-drug resistant bacteria; experiment: MIC, summary statements for multi-drug resistant bacteria; format: cell-based
Method: For the antibacterial activity, a minimal inhibitory concentration (MIC) of a peptide in which fungus bodies were not split in an MH medium with sufficient nutrients was measured.
Specifically, the strains described in the following [Table 2] were purchased and diluted with an MH medium such that the number of bacteria was 2×10^6 colony-forming units (CFUs), 100 μl of each of the diluted strains was aliquoted into a 96-well microtiter plate, and then 100 μl of a peptide solution diluted with the MH medium (solution diluted stepwise at 2: 1) was added to each well.

[4] = peptide treatment concentration 1 μg/ml
[5] = peptide treatment concentration 2 μg/ml
[6] = peptide treatment concentration 4 μg/ml
[7] = peptide treatment concentration 6 μg/ml
[8] = peptide treatment concentration 8 μg/ml
[9] = peptide treatment concentration 16 μg/ml
[10] = peptide treatment concentration 32 μg/ml
[11] = peptide treatment concentration 64 μg/ml

Compound | Minimal inhibitory concentration MIC (MDRAB 12036) [µg/mL] | Minimal inhibitory concentration MIC (S. aureus) [µg/mL] | Minimal inhibitory concentration MIC (MDREC 1238) [µg/mL] | Minimal inhibitory concentration MIC (B. subtilis) [µg/mL] | Minimal inhibitory concentration MIC (MDRPA 2002) [µg/mL] | Minimal inhibitory concentration MIC (MDRPA 2003) [µg/mL] | Minimal inhibitory concentration MIC (MDREC 1229 [1]) [µg/mL] | Minimal inhibitory concentration MIC (E. coli) [µg/mL] | Minimal inhibitory concentration MIC (MRSA 3114) [µg/mL] | Minimal inhibitory concentration MIC (MRSA 3126) [µg/mL] | Minimal inhibitory concentration MIC (MDRST 8009) [µg/mL] | Antibiotic MIC, Erythromycin (MDREC 1229 [2]; [4]) [µg/mL] | Antibiotic MIC, Linezolid (MDREC 1229 [2]; [4]) [µg/mL] | Antibiotic MIC, Vancomycin (MDREC 1229 [2]; [4]) [µg/mL] | Antibiotic MIC, Erythromycin (MDREC 1229 [2]; [5]) [µg/mL] | Antibiotic MIC, Linezolid (MDREC 1229 [2]; [5]) [µg/mL] | Antibiotic MIC, Vancomycin (MDREC 1229 [2]; [5]) [µg/mL] | Antibiotic MIC, Erythromycin (MDREC 1229 [2]; [6]) [µg/mL] | Antibiotic MIC, Linezolid (MDREC 1229 [2]; [6]) [µg/mL] | Antibiotic MIC, Vancomycin (MDREC 1229 [2]; [6]) [µg/mL] | other results
CC[C@H](C)[C@H](NC(=O)[C@H](CCCCN)NC(=O)[C@H](Cc1c[nH]c2ccccc12)NC(=O)[C@@H](N)CCCNC(=N)N)C(=O)N[C@@H](Cc1ccccc1)C(=O)N[C@@H](CCCCN)C(=O)N[C@@H](CCCCN)C(=O)N[C@H](C(=O)N1CCC[C@H]1C(=O)N[C@@H](CCCCN)C(=O)N[C@@H](CC(C)C)C(=O)N[C@@H](CC(C)C)C(=O)N[C@@H](Cc1c[nH]cn1)C(=O)N[C@@H](CCC(=O)O)C(=O)N[C@@H](Cc1ccccc1)C(=O)N[C@@H](CCCCN)C(=O)N[C@@H](CCCCN)C(=O)N[C@@H](Cc1ccccc1)C(N)=O)[C@@H](C)CC [PapMA-12, RWK IFK KIP KLL HEF KKF-NH2] (H-RWKIFKKIPKLLHEFKKF-NH2; N-terminus assumed) | 16 (≈ 6.71 µM) | >128 | 16 (≈ 6.71 µM) | >128 | 64 (≈ 26.8 µM) | 64 (≈ 26.8 µM) | 16 (≈ 6.71 µM) | 8 (≈ 3.35 µM) | >128 | >128 | 32 (≈ 13.4 µM) | 128 | >128 | >128 | 32 | 128 | >128 | 8 | 32 | 128 | Peptide MIC, peptide alone (MDREC 1229 [1]): 16 µg/mL; Antibiotic MIC, Erythromycin (MDREC 1229 [2]; [7]): 4 µg/mL; Antibiotic MIC, Linezolid (MDREC 1229 [2]; [7]): 16 µg/mL; Antibiotic MIC, Vancomycin (MDREC 1229 [2]; [7]): 32 µg/mL; Antibiotic MIC, Erythromycin (MDREC 1229 [2]; [8]): 1 µg/mL; Antibiotic MIC, Linezolid (MDREC 1229 [2]; [8]): 16 µg/mL; Antibiotic MIC, Vancomycin (MDREC 1229 [2]; [8]): 8 µg/mL; Antibiotic MIC, Erythromycin (MDREC 1229 [2]; [9]): 0 µg/mL; Antibiotic MIC, Linezolid (MDREC 1229 [2]; [9]): 0 µg/mL; Antibiotic MIC, Vancomycin (MDREC 1229 [2]; [9]): 0 µg/mL; Antibiotic MIC, Erythromycin (MDREC 1229 [2]; [10]): 0 µg/mL; Antibiotic MIC, Linezolid (MDREC 1229 [2]; [10]): 0 µg/mL; Antibiotic MIC, Vancomycin (MDREC 1229 [2]; [10]): 0 µg/mL; Antibiotic MIC, Erythromycin (MDREC 1229 [2]; [11]): 0 µg/mL; Antibiotic MIC, Linezolid (MDREC 1229 [2]; [11]): 0 µg/mL; Antibiotic MIC, Vancomycin (MDREC 1229 [2]; [11]): 0 µg/mL; Minimal inhibitory concentration MIC (S. typhimurium): 16 µg/mL (≈ 6.71 µM); Antibacterial activity relative to PapMA-1 [3]: twice to four times higher
CC[C@H](C)[C@H](NC(=O)[C@H](CCCCN)NC(=O)[C@H](Cc1c[nH]c2ccccc12)NC(=O)[C@@H](N)CCCNC(=N)N)C(=O)N[C@@H](Cc1ccccc1)C(=O)N[C@@H](CCCCN)C(=O)N[C@@H](CCCCN)C(=O)N[C@H](C(=O)N1CCC[C@H]1C(=O)N[C@@H](CCCCN)C(=O)N[C@@H](Cc1ccccc1)C(=O)N[C@@H](CC(C)C)C(=O)N[C@@H](Cc1c[nH]cn1)C(=O)N[C@@H](CO)C(=O)N[C@@H](C)C(=O)N[C@@H](CCCCN)C(=O)N[C@@H](CCCCN)C(=O)N[C@@H](Cc1ccccc1)C(N)=O)[C@@H](C)CC [PapMA-1, RWK IFK KIP KFL HSA KKF-NH2] (H-RWKIFKKIPKFLHSAKKF-NH2; N-terminus assumed) | 64 (≈ 27.8 µM) | >128 | 64 (≈ 27.8 µM) | >128 | 16 (≈ 6.95 µM) | 32 (≈ 13.9 µM) | 64 (≈ 27.8 µM) | 64 (≈ 27.8 µM) | >128 | >128 | 64 (≈ 27.8 µM) | 128 | >128 | >128 | 32 | 128 | >128 | 16 | 64 | >128 | Peptide MIC, peptide alone (MDREC 1229 [1]): 64 µg/mL; Antibiotic MIC, Erythromycin (MDREC 1229 [2]; [7]): 8 µg/mL; Antibiotic MIC, Linezolid (MDREC 1229 [2]; [7]): 64 µg/mL; Antibiotic MIC, Vancomycin (MDREC 1229 [2]; [7]): >128 µg/mL; Antibiotic MIC, Erythromycin (MDREC 1229 [2]; [8]): 4 µg/mL; Antibiotic MIC, Linezolid (MDREC 1229 [2]; [8]): 32 µg/mL; Antibiotic MIC, Vancomycin (MDREC 1229 [2]; [8]): 128 µg/mL; Antibiotic MIC, Erythromycin (MDREC 1229 [2]; [9]): 1 µg/mL; Antibiotic MIC, Linezolid (MDREC 1229 [2]; [9]): 16 µg/mL; Antibiotic MIC, Vancomycin (MDREC 1229 [2]; [9]): 16 µg/mL; Antibiotic MIC, Erythromycin (MDREC 1229 [2]; [10]): 0.25 µg/mL; Antibiotic MIC, Linezolid (MDREC 1229 [2]; [10]): 8 µg/mL; Antibiotic MIC, Vancomycin (MDREC 1229 [2]; [10]): 8 µg/mL; Antibiotic MIC, Erythromycin (MDREC 1229 [2]; [11]): 0 µg/mL; Antibiotic MIC, Linezolid (MDREC 1229 [2]; [11]): 0 µg/mL; Antibiotic MIC, Vancomycin (MDREC 1229 [2]; [11]): 0 µg/mL; Minimal inhibitory concentration MIC (S. typhimurium): 64 µg/mL (≈ 27.8 µM)
CC[C@H](C)[C@H](NC(=O)[C@H](CCCCN)NC(=O)[C@H](Cc1c[nH]c2ccccc12)NC(=O)[C@@H](N)CCCNC(=N)N)C(=O)N[C@@H](Cc1ccccc1)C(=O)N[C@@H](CCCCN)C(=O)N[C@@H](CCCCN)C(=O)N[C@H](C(=O)N1CCC[C@H]1C(=O)N[C@@H](CCCCN)C(=O)N[C@@H](Cc1ccccc1)C(=O)N[C@@H](CC(C)C)C(=O)N[C@@H](Cc1c[nH]cn1)C(=O)N[C@@H](CO)C(=O)N[C@@H](Cc1ccccc1)C(=O)N[C@@H](CCCCN)C(=O)N[C@@H](CCCCN)C(=O)N[C@@H](Cc1ccccc1)C(N)=O)[C@@H](C)CC [PapMA-5, RWK IFK KIP KFL HSF KKF-NH2] (H-RWKIFKKIPKFLHSFKKF-NH2; N-terminus assumed) | 64 (≈ 26.9 µM) | >128 | 64 (≈ 26.9 µM) | >128 | 16 (≈ 6.73 µM) | 16 (≈ 6.73 µM) | 64 (≈ 26.9 µM) | 64 (≈ 26.9 µM) | >128 | >128 | 64 (≈ 26.9 µM) | 128 | 128 | >128 | 64 | 128 | >128 | 16 | 64 | >128 | Antibiotic MIC, Erythromycin (MDREC 1229 [2]; [7]): 8 µg/mL; Antibiotic MIC, Linezolid (MDREC 1229 [2]; [7]): 32 µg/mL; Antibiotic MIC, Vancomycin (MDREC 1229 [2]; [7]): >128 µg/mL; Antibiotic MIC, Erythromycin (MDREC 1229 [2]; [8]): 4 µg/mL; Antibiotic MIC, Linezolid (MDREC 1229 [2]; [8]): 32 µg/mL; Antibiotic MIC, Vancomycin (MDREC 1229 [2]; [8]): 64 µg/mL; Antibiotic MIC, Erythromycin (MDREC 1229 [2]; [9]): 1 µg/mL; Antibiotic MIC, Linezolid (MDREC 1229 [2]; [9]): 16 µg/mL; Antibiotic MIC, Vancomycin (MDREC 1229 [2]; [9]): 16 µg/mL; Antibiotic MIC, Erythromycin (MDREC 1229 [2]; [10]): 0.25 µg/mL; Antibiotic MIC, Linezolid (MDREC 1229 [2]; [10]): 4 µg/mL; Antibiotic MIC, Vancomycin (MDREC 1229 [2]; [10]): 8 µg/mL; Antibiotic MIC, Erythromycin (MDREC 1229 [2]; [11]): 0 µg/mL; Antibiotic MIC, Linezolid (MDREC 1229 [2]; [11]): 0 µg/mL; Antibiotic MIC, Vancomycin (MDREC 1229 [2]; [11]): 0 µg/mL; Minimal inhibitory concentration MIC (S. typhimurium): 64 µg/mL (≈ 26.9 µM)
